What was measured:
P. gingivalis 381 = settings: cited from earlier work
Clostripain = molecular target: T1, Clostripain (Hathewaya histolytica, UniProt P09870); experiment: Clostripain inhibition; format: biochemical; settings: endopeptidase of Clostridium histolyticum
T1 construct: purchased Sigma Chemical Corp., St. Louis, Mo
Method: Clostripain from Clostridium histolyticum (Sigma Chemical Corp., St. Louis, Mo.) is dissolved in deionized water to a concentration of 1 mg/ml (300 units/mg) and activated with the addition of 10 mmol/L DTT. To measure its hydrolytic activity, clostripain ( 6 units) is added to […] Hepes buffer, pH 7.5, containing 80 μmol/L BAPNA (benzoyl-arginine-p-nitroanilide), together with 5.6 μmol/L of histatin peptide inhibitor. As controls, assays are performed in the absence of any histatin peptide inhibitor. The activity is monitored continuously at 405 nm using a Molecular Devices Vmax microtitre plate reader. The activities are determined from the maximum rates of substrate hydrolysis. Assays are done in duplicate, and the means normalized to the controls.

T1 sequence (P09870 191-526): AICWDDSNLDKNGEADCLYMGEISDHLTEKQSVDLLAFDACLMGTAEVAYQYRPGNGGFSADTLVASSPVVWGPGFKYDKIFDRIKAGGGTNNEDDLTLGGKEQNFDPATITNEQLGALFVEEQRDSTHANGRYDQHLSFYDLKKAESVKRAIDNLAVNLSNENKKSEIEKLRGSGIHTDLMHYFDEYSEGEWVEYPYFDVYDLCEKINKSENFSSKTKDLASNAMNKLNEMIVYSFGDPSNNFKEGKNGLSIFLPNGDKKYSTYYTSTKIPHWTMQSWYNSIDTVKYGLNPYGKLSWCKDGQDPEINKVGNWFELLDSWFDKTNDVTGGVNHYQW
T1 sequence (P09870 51-181): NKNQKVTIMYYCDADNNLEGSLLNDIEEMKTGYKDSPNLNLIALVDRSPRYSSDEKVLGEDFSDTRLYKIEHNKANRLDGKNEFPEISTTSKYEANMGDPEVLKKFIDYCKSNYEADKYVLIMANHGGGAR

histatin 5
concentration giving complete hemagglutination inhibition (P. gingivalis 381): 5 nmol/mL | inhibition of hemagglutination (in words) (P. gingivalis 381): inhibit hemagglutination | inhibition of clostripain (in words) (Clostripain): can be inhibited

Source: US6531573B1, “Antifungal and antibacterial peptides” (Trustees of Boston University, priority 1997, dated 2003)
